{"source": "paper PMC6797804", "about": "“Histone H3K23-specific acetylation by MORF is coupled to H3K14 acylation” (Nature Communications, 2019)", "key": {"MORFN complex": {"system": "MORFN complex", "assay": "HAT assay, WT MORFN complex overexpressed in 293T cells", "type": "biochemical", "conditions": "H3 peptides residues 1–29, 3H-Ac-CoA, pH 8, 30 min at 30 °C, CPM, n = 2", "source_text": "(§1) The amounts of native (K562) or overexpressed (293T) MORF complexes were normalized empirically following SDS-PAGE and transfer onto nitrocellulose membrane. Anti-FLAG M2 conjugated to horseradish peroxydase (HRP; Sigma) was used at a 1:10,000 dilution and the immunoblots were visualized using a Western Lightning plus-ECL reagent (Perkin-Elmer). Anti-HA-HRP (clone 3F10, Roche) was used at a 1:2000 dilution."}, "native MORF complex": {"system": "native MORF complex", "assay": "HAT assay, native MORF complex from K562 cells", "type": "biochemical, Homo sapiens", "conditions": "native WT MORF complex; H3 peptides residues 1–29, 3H-Ac-CoA, pH 8, 30 min at 30 °C; scintillation CPM; n = 2", "procedure": "For purification of native complexes, after large-scale expansion of K562 clones, tandem affinity purifications (TAP) of MORF and MOZ complexes were performed on nuclear extracts as previously described[43]. Briefly, nuclear extracts were prepared following standard procedures and precleared with CL6B Sepharose beads.\nas §1"}, "MORFN F287A complex": {"system": "MORFN F287A complex", "assay": "HAT assay, MORFN F287A complex overexpressed in 293T cells", "type": "biochemical", "conditions": "H3K23ac peptide residues 1–29, 3H-Ac-CoA, pH 8, 30 min at 30 °C, CPM, n = 2", "description": "Cells were harvested 48 h post-co-transfection and lysed in high-salt buffer (450 mM NaCl, 50 mM Tris-HCl (pH 8.0), 1% TX-100, 2 mM MgCl2, 0.1 mM ZnCl2, 2 mM EDTA, 10% glycerol) supplemented with protease inhibitor mixture. The NaCl concentration was reduced to 225 mM and the whole cell extract centrifuged at 14,000 rpm for 30 min. […] FLAG beads were next washed with the 225 mM NaCl buffer and eluted with 200 μg/ml of 3× FLAG peptide (Sigma).\nIn Fig. 4e and Supplementary Fig. 7, FLAG-tagged MORF proteins were overexpressed and prepared from transiently transfected 293T cells. Briefly, approximately 2 mg of total cell extract was incubated with 25 μl of M2-agarose beads (Sigma) overnight at 4 °C. […]\nAcetyltransferase activity of the purified complexes was measured with 0.125 µCi of ^3H labeled Ac-CoA (2.1 Ci/mmol; PerkinElmer Life Sciences). […] The reactions were then captured on P81 filter paper, the free H3-labeled Ac-CoA was washed away and the paper was analyzed using Liquid Scintillation. […]\nIn Fig. 4e and Supplementary Fig. 7, purified MORF proteins were incubated at 37 °C for indicated times with peptides (1 μg) and 0.1 mM acetyl-CoA in HAT reaction buffer (50 mM Tris, pH 8.0, 0.1 mM EDTA, 10% glycerol, 1 mM PMSF, and 1 mM DTT) in a total volume of 50 μL. Reactions were quenched by flash-freezing in liquid nitrogen and then analyzed by SDS-PAGE and Western blot."}}}
{"substance": "H3K23ac: H3 peptide (residues 1–29) pre-acetylated at Lys23", "values": [{"measurement": "decrease in HAT activity relative to unmodified H3 peptide", "setting": "MORFN complex; WT MORFN complex (293T)", "value": "~ 7 fold"}, {"measurement": "HAT activity of MORFN complex, in words", "setting": "MORFN complex; WT MORFN complex", "value": "substantially reduced residual enzymatic activity"}, {"measurement": "decrease in HAT activity relative to unmodified H3 peptide", "setting": "native MORF complex", "value": "~ 12 fold"}, {"measurement": "HAT activity of MORFN F287A complex, in words", "setting": "MORFN F287A complex", "value": "substantially reduced residual enzymatic activity"}]}
